This is an account of results in patent US20050148044A1 (priority 1999, published 2005).

Where “and” joins values, the source holds several entries; their conditions need not be identical. Equal values may be shown once. Entries after “also recorded” stand apart in the source; their conditions may differ.

Experiment [1] has as its system C. perfringens. The experiment is classed as cell-based, Clostridium perfringens.
The subject of experiment [2] is Citrobacter. The experiment is classed as cell-based.
Experiment [3] concerns E. coli. The experiment is classed as cell-based.
The subject of another experiment is Bacteroides fragilis. Type of experiment: cell-based.
The subject of experiment [4] is C. butyricum. The experiment is classed as cell-based, Clostridium butyricum.
Experiment [5] has as its system C. perfringens. Type of experiment: cell-based, Clostridium perfringens. This is another data set of the same source.
The subject of experiment [6] is C. butyricum. The experiment is classed as cell-based, Clostridium butyricum. The source holds these as a separate data set.
The test system of a further experiment is B. fragilis. The experiment is classed as cell-based, Bacteroides fragilis.
The test system of experiment [7] is Citrobacter. Type of experiment: cell-based. This is another data set of the same source.
Experiment [8] concerns E. coli. Type of experiment: cell-based. The source holds these as a separate data set.
For the next experiment, the system named is B. longum. Type of experiment: cell-based. Also noted: key: Ø: without halo; + → +++: intensity of the halo; + → +++: intensity of the halo; + → +++: intensity of the halo; ↓: reduction in the microorganisms (here by 90%).
For the next experiment, the system named is B. dentium. Type of experiment: cell-based. Also noted: key: Ø: without halo; + → +++: intensity of the halo; + → +++: intensity of the halo; + → +++: intensity of the halo; ↓: reduction in the microorganisms (here by 90%).
For a further experiment, the system named is Bifidobacterium bifidum. The experiment is classed as cell-based. Also noted: key to intensity of the halo / reduction in the microorganisms: Ø: without halo; + → +++: intensity of the halo; + → +++: intensity of the halo; + → +++: intensity of the halo; ↓: reduction in the microorganisms (here by 90%).

Turning to “5-bromo-4-chloro-3-indolyl-β-D-galactopyranoside [X-Gal]”, in the experiment with C. perfringens [1], the “colors due to the hydrolysis of the substrate” value (“colors due to the hydrolysis” below) is recorded as “difficult to see”, the “halos around the colonies” value is on record as “blue-gray halos” and the “relative intensity of the color of the colonies (3 to 0)” value (“relative intensity” below) is on record as 3. For the same molecule, in the experiment with Citrobacter [2], the “color of the colonies” value is “cream-colored”. Further, in the experiment on E. coli [3], the “color of the colonies” value is recorded as “all blue” and the “relative intensity” value is recorded as 3. In addition, the “relative intensity” value in the experiment with Bacteroides fragilis is 2.

Regarding `OC[C@@H]1O[C@@H](Oc2c[nH]c3cc(Cl)c(Br)cc23)[C@@H](O)[C@@H](O)[C@H]1O` [Mag-Gal], the “relative intensity” value with C. perfringens [1] is 3; with Citrobacter [2], 1 and 2; in the experiment on E. coli [3], 2; in the experiment on Bacteroides fragilis, 1; with C. butyricum [4], 2. Besides, the “color of the colonies” value in the experiment on Citrobacter [2] was “cream-colored and pink”. The “growth of the colonies” value in the experiment with C. butyricum [4] is recorded as “did not grow”.

In the case of `O=P(O)(O)Oc1c[nH]c2cc(Cl)c(Br)cc12` [Mag-Phos], in the experiment on C. perfringens [1], the “colors due to the hydrolysis” value was “difficult to see”. The “relative intensity” value in the experiment with C. perfringens [1] was 3 and 2; in the experiment with Citrobacter [2] it was 2 and 3; in the experiment with E. coli [3], 2 and 3. For the same molecule, the “color of the colonies” value in the experiment on Citrobacter [2] is “cream-colored (darker center); also recorded: pink (pink agar)”; in the experiment with E. coli [3], “cream-colored (darker center); also recorded: pink (pink agar)”; in the experiment on Bacteroides fragilis, “cream-pink; also recorded: cream-colored with a brownish halo”.

For the molecule `OC[C@H]1O[C@H](Oc2c[nH]c3cc(Cl)c(Br)cc23)[C@H](O)[C@@H](O)[C@H]1O` [Mag-α-Gal], the “color of the colonies” value with C. perfringens [1] was “cream-colored and pink”; in the experiment with Citrobacter [2], “cream-colored; also recorded: darker or light cream-colored”; with E. coli [3], “darker or light cream-colored; also recorded: cream-colored”; with C. butyricum [4], “cream-colored; also recorded: darker or light cream-colored”.

On to `O=P(O)(O)Oc1c[nH]c2ccc(Br)c(Cl)c12` [X-Phos], for which the “color of the colonies” value with C. perfringens [1] was “greenish cream-colored with a slight blue halo”; with E. coli [3], “very light greenish cream-colored; also recorded: darker”; with Bacteroides fragilis, “cream-colored when they are isolated, blue in group; also recorded: deep cream-colored, light brown”; in the experiment with C. butyricum [4], “cream-colored; also recorded: cream-colored with a very light halo near the colony and then blue at the periphery”. For the same molecule, the “relative intensity” value with C. perfringens [1] is 2; with Citrobacter [2], 3; in the experiment with E. coli [3] it was 2 and 3; in the experiment on Bacteroides fragilis it was 1 and 2; with C. butyricum [4], 2. Also, in the experiment on C. butyricum [4], the “growth of the colonies” value is recorded as “did not grow”.

In the case of `CC(=O)N[C@H]1[C@H](Oc2c[nH]c3ccc(Br)c(Cl)c23)O[C@H](CO)[C@@H](O)[C@@H]1O` [X-acglmn], the “color of the colonies” value is on record as “cream-colored; also recorded: very slightly greenish cream-colored” in the experiment on C. perfringens [1], “cream-colored” in the experiment with Citrobacter [2], “cream-colored” in the experiment with E. coli [3] and “cream-colored” in the experiment with Bacteroides fragilis.

As for `OC[C@H]1O[C@@H](Oc2c[nH]c3ccc(Br)c(Cl)c23)[C@H](O)[C@@H](O)[C@@H]1O` [X-glu], the “colors due to the hydrolysis” value in the experiment with C. perfringens [1] is “difficult to see”.

Take `O=C(O)[C@H]1O[C@@H](Oc2c[nH]c3ccc(Br)c(Cl)c23)[C@H](O)[C@@H](O)[C@@H]1O` [X-glucu]: the “colors due to the hydrolysis” value with C. perfringens [1] is given as “difficult to see”.

`N[C@@H]1CON=C1O` [cycloserine]: the “growth in the presence of antibiotic” value in the experiment on C. perfringens [5], in the experiment with C. butyricum [6], with B. fragilis, in the experiment with Citrobacter [7] and with E. coli [8] was “grow” each time.

As to ammoniacal iron citrate [AIC], the “intensity of the halo” value with B. longum is “+ and ++”. Moreover, the “intensity of the halo” value in the experiment on B. dentium is “+ and ++”. For the same molecule, in the experiment with Bifidobacterium bifidum, the bacterial count result is on record as “reduction in the number of microorganisms”; the “halo around the colonies” value is on record as “more intense; also recorded: became visible”; the “intensity of the halo” value is “+ and ++ and +++↓”; the “reduction in the microorganisms” value is reported as “+++↓”.
